Key:
cells = conditions: cited from earlier work
mice = conditions: cited from earlier work
neuroblastoma lines = assay: nuclear chemotherapy with 77BrdC on neuroblastoma lines; assay type: cell-based; conditions: ten neuroblastoma lines tested; H4U blockage
Procedure: An investigation of a method called “nuclear chemotherapy” was done many years previously at Sloan-Kettering Research Institute in New York, by Dr. Chia-Gee Wang and Dr. Lawrence Helson. The research was done using ^77BrdC, where ^77Br (half-life at 57 hours) would undergo a K-capture and deliver 10^6 or more Gy at a small distance. The […] of BrdC to BrdU can be blocked by the non-toxic H4U and therefore excluding BrdC from being incorporated into the DNA pool. Certain transformed cells, on the other hand, would make use of a more primitive kinase to bypass the H4U blockage, and incorporate BrdC to form BrdU. The ^77Br was made by adding an α particle to ^75As in a facility in the U.K. ^77Br was obtained in liquid solution, and ^77BrdC was made. […] The cells simply stopped mitosis while continuing most of the cellular functions. The Auger electrons from the ^77BrdU delivered such a high dose of the DNA duplex that no cellular repair was possible.

7-DTPA-Paclitaxel
retention of paclitaxel potency in the cells (cells): retain much of the paclitaxel potency

O=C([O-])CN(CCN(CC(=O)[O-])CC(=O)O)CCN(CC(=O)[O-])CC(=O)O.[Gd+3] [Gd-DTPA]
LD50 in mice (mice): ~10 mmol/kg

Nc1nc(=O)n([C@H]2C[C@H](O)[C@@H](CO)O2)cc1[77Br] [^77BrdC]
sensitivity of neuroblastoma lines (neuroblastoma lines): two of the ten lines were sensitive

Source: patent US7981928B2, “Chemotherapy method using x-rays” (Nanodynamics, Inc., priority 2002, dated 2011)
